We go through four molecules from US20230265151A1, “GIP/GLP1 CO-AGONIST COMPOUNDS” (priority 2020, published 2023).

Read-outs that look alike come from different tables or passages of the source. *1 amine or outer side, *2 acyl side, *3 side chain or, on linkers, in order; H or OH if unused. Where a SMILES comes first, the peptide text is derived from it. Side-chain parts run from the residue outwards. [ ]: non-standard residue; d: D form. The star is where a group is joined. αMePhe(2-F) = C[C@](N)(Cc1ccccc1F)C(=O)O; γGlu = O=C(O)[C@H](CCC(=O)[*:2])N[*:1]; C14 diacid = O=C(O)CCCCCCCCCCCCC(=O)*; αMeY = C[C@](N)(Cc1ccc(O)cc1)C(=O)O; 4Pal = N[C@@H](Cc1ccncc1)C(=O)O; αMeL = CC(C)C[C@](C)(N)C(=O)O; Orn = NCCC[C@H](N)C(=O)O; AEEA = NCCOCCOCC(=O)O; Aib = CC(C)(N)C(=O)O

Broadly, the Emax is the size of the effect at its maximum, as opposed to the concentration needed. The EC50 is the concentration that produces a half-maximal response.

Common to all, as to type: cell-based
One assay deals with T1, hGIPR (Homo sapiens, UniProt P48546).
T1 construct: expressed in transfected cells
T1 sequence (P48546 22-466): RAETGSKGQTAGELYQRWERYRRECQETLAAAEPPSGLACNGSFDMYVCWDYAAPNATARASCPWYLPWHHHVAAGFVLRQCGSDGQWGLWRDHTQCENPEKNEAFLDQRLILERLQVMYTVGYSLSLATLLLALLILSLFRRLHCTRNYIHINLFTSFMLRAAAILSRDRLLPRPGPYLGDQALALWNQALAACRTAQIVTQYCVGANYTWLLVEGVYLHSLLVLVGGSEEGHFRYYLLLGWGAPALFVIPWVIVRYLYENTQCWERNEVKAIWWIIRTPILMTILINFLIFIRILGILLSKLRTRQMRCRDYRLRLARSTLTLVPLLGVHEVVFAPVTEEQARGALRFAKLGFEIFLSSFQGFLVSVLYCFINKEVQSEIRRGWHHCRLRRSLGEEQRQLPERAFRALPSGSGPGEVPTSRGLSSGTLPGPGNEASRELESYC
Nature of the assay: Functional cAMP formation (HTRF) in HEK-293 clonal cells expressing hGIPR, 0.1% bovine casein, without or with 1.0% human serum albumin. The following applies: for Emax: read-out: hGIPR Emax, % ± SEM; for EC50: cAMP, 0.1% bovine casein (no human serum albumin), geometric mean, read-out: hGIPR EC50, nM (SEM, n). Summed up:
(§1)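 Readings of the HTRF 665/620 nm ratio, which falls as cAMP rises, were converted to nM cAMP using a standard curve after 30 min peptide exposure at 37° C.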
A general note: Changes in cAMP serve as a functional read-out for many G protein-coupled receptors.

The next assay deals with T2, hGCGR (Homo sapiens, UniProt P47871).
T2 construct: expressed in transfected cells
Nature of the assay: Functional cAMP formation (HTRF) in HEK-293 clonal cells expressing hGCGR, 0.1% bovine casein, without or with 1.0% human serum albumin. The conditions noted are these: read-out: hGCGR EC50, nM (SEM, n). In outline:
as §1

The target of another assay is hGLP-1R (Homo sapiens, UniProt P43220). Kind of assay: Functional cAMP formation (HTRF) in HEK-293 clonal cells expressing hGLP-1R, 0.1% bovine casein, without or with 1.0% human serum albumin. The following applies: for Emax: read-out: hGLP-1R Emax, % ± SEM; for EC50: read-out: hGLP-1R EC50, nM (SEM, n). Details: expressed in transfected cells. Summed up: as §1
The mark [1] stands for this setting: HEK293, 0.1% bovine casein and 1.0% human serum albumin, 37° C., percent of maximal response to GIP(1-42)NH2.
Where [2] appears, read: 0.1% bovine casein and 1.0% human serum albumin, 37° C., geometric mean.
Where [3] appears, read: cAMP, incubated at 37° C., 0.1% bovine casein (no human serum albumin), geometric mean.
Setting [4] is: HEK293, 0.1% bovine casein and 1.0% human serum albumin, 37° C., percent of maximal response to GLP-1(7-36)NH2.
Where [5] appears, read: HEK293, cAMP, 37° C., 0.1% bovine casein and 1.0% human serum albumin, percent of maximal response to GIP(1-42)NH2.
[6] abbreviates: cAMP, 37° C., 0.1% bovine casein (no human serum albumin), geometric mean.
Where [7] appears, read: cAMP, 37° C., 0.1% bovine casein and 1.0% human serum albumin, geometric mean (SEM, n).

Chain of hGLP-1R (P43220 24-463): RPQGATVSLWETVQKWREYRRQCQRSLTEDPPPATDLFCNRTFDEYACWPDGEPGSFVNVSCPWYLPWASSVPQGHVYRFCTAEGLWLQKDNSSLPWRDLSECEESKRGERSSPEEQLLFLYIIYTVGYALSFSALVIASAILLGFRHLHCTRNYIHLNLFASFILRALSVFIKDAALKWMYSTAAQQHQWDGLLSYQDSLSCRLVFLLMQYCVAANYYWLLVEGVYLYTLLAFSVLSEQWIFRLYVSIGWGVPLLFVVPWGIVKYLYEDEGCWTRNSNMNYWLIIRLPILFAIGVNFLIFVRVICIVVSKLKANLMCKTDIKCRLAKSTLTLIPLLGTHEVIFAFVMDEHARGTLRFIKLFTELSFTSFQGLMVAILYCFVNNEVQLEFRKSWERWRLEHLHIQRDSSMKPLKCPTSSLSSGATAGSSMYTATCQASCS
T2 sequence (P47871 26-477): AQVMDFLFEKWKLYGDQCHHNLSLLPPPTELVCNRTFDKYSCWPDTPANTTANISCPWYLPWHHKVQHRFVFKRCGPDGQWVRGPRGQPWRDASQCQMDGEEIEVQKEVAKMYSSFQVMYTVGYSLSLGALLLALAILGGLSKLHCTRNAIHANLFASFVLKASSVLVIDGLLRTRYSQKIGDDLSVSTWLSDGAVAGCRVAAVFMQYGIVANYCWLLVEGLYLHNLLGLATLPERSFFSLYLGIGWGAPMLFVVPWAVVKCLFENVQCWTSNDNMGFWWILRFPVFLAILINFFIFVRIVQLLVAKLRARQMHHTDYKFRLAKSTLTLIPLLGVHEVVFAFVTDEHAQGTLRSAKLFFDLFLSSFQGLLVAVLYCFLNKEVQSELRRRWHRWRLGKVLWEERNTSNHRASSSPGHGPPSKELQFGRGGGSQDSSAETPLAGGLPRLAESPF

Consider `CC[C@H](C)[C@H](NC(=O)[C@H](CCCN)NC(=O)[C@H](CC(=O)O)NC(=O)[C@H](CC(C)C)NC(=O)[C@](C)(CC(C)C)NC(=O)[C@@H](NC(=O)[C@H](CO)NC(=O)[C@H](Cc1ccncc1)NC(=O)[C@H](CC(=O)O)NC(=O)[C@H](CO)NC(=O)[C@@H](NC(=O)[C@](C)(Cc1ccccc1F)NC(=O)[C@@H](NC(=O)CNC(=O)[C@H](CCC(=O)O)NC(=O)C(C)(C)NC(=O)[C@@H](N)Cc1ccc(O)cc1)[C@@H](C)O)[C@@H](C)O)[C@@H](C)CC)C(=O)N[C@@H](C)C(=O)N[C@@H](CCC(N)=O)C(=O)NC(C)(C)C(=O)N[C@@H](CCC(=O)O)C(=O)N[C@@H](Cc1ccccc1)C(=O)N[C@H](C(=O)N[C@H](CCC(=O)O)C(=O)N[C@@](C)(Cc1ccc(O)cc1)C(=O)N[C@@H](CC(C)C)C(=O)N[C@H](C(=O)N[C@@H](CCCCNC(=O)COCCOCCNC(=O)COCCOCCNC(=O)COCCOCCNC(=O)CC[C@H](NC(=O)CCCCCCCCCCCCC(=O)O)C(=O)O)C(=O)NCC(=O)NCC(=O)N1CCC[C@H]1C(=O)N[C@@H](CO)C(=O)N[C@@H](CO)C(=O)NCC(=O)N[C@@H](C)C(=O)N1CCC[C@H]1C(=O)N1CCC[C@H]1C(=O)N1CCC[C@H]1C(=O)N[C@@H](CO)C(=O)N[C@@H](CCCCNC(=O)COCCOCCNC(=O)COCCOCCNC(=O)COCCOCCNC(=O)CC[C@H](NC(=O)CCCCCCCCCCCCC(=O)O)C(=O)O)C(N)=O)[C@@H](C)CC)[C@@H](C)CC` [Example 229] (H-Y[Aib]EGT[αMePhe(2-F)]TSD[4Pal]SI[αMeL]LD[Orn]IAQ[Aib]EFI[dE][αMeY]LIK([AEEA-AEEA-AEEA-γGlu-C14 diacid])GGPSSGAPPPSK([AEEA-AEEA-AEEA-γGlu-C14 diacid])-NH2), for which the Emax at hGIPR (setting [1]) stood at 80.5%; on hGLP-1R (setting [4]), 99%; at hGLP-1R (HEK293, percent of maximal response to GLP-1(7-36)NH2, 37° C., 0.1% bovine casein, arithmetic mean), 94.3%. The EC50 on hGIPR (incubated at 37° C.) was 0.0253 nM; at hGCGR (setting [2]), > 9950 nM; on hGCGR (setting [3]) it was > 9950 nM; on hGLP-1R (setting [3]), 2.25 nM.

Turning to `CC[C@H](C)[C@H](NC(=O)[C@H](CC(C)C)NC(=O)[C@](C)(Cc1ccc(O)cc1)NC(=O)[C@H](CCCCNC(=O)COCCOCCNC(=O)COCCOCCNC(=O)CC[C@H](NC(=O)CCCCCCCCCCCCC(=O)O)C(=O)O)NC(=O)[C@@H](NC(=O)[C@H](Cc1ccccc1)NC(=O)[C@H](CCCN)NC(=O)C(C)(C)NC(=O)[C@H](CCC(N)=O)NC(=O)[C@H](C)NC(=O)[C@H](CCC(N)=O)NC(=O)[C@H](CCCN)NC(=O)[C@H](CC(=O)O)NC(=O)[C@H](CC(C)C)NC(=O)[C@](C)(CC(C)C)NC(=O)[C@@H](NC(=O)C(C)(C)NC(=O)[C@H](Cc1ccc(O)cc1)NC(=O)[C@H](CC(=O)O)NC(=O)[C@H](CO)NC(=O)[C@@H](NC(=O)[C@](C)(Cc1ccccc1F)NC(=O)[C@@H](NC(=O)CNC(=O)[C@H](CCC(=O)O)NC(=O)C(C)(C)NC(=O)[C@@H](N)Cc1ccc(O)cc1)[C@@H](C)O)[C@@H](C)O)[C@@H](C)CC)[C@@H](C)CC)C(=O)N[C@@H](CCCCNC(=O)COCCOCCNC(=O)COCCOCCNC(=O)CC[C@H](NC(=O)CCCCCCCCCCCCC(=O)O)C(=O)O)C(=O)NCC(=O)NCC(=O)N1CCC[C@H]1C(=O)N[C@@H](CO)C(=O)N[C@@H](CO)C(=O)NCC(=O)N[C@@H](C)C(=O)N1CCC[C@H]1C(=O)N1CCC[C@H]1C(=O)N1CCC[C@H]1C(=O)N[C@@H](CO)C(N)=O` [Example 401], the Emax on hGIPR (setting [5]) worked out at 83%; on hGIPR (HEK293, cAMP, 37° C., 0.1% bovine casein, percent of maximal response to GIP(1-42)NH2, arithmetic mean), 98.9%. The EC50 at hGIPR (37° C.) was 0.0112 nM; at hGCGR (setting [6]), > 9950 nM; at hGCGR (setting [7]), > 9950 nM; at hGLP-1R (setting [6]) it was 0.235 nM.

Take `CC[C@H](C)[C@H](NC(=O)[C@H](CCCN)NC(=O)[C@H](CC(=O)O)NC(=O)[C@H](CC(C)C)NC(=O)[C@](C)(CC(C)C)NC(=O)[C@@H](NC(=O)C(C)(C)NC(=O)[C@H](Cc1ccc(O)cc1)NC(=O)[C@H](CC(=O)O)NC(=O)[C@H](CO)NC(=O)[C@@H](NC(=O)[C@](C)(Cc1ccccc1F)NC(=O)[C@@H](NC(=O)CNC(=O)[C@H](CCC(=O)O)NC(=O)C(C)(C)NC(=O)[C@@H](N)Cc1ccc(O)cc1)[C@@H](C)O)[C@@H](C)O)[C@@H](C)CC)C(=O)N[C@@H](C)C(=O)N[C@@H](CCC(N)=O)C(=O)NC(C)(C)C(=O)N[C@@H](CCC(=O)O)C(=O)N[C@@H](Cc1ccccc1)C(=O)N[C@H](C(=O)N[C@@H](CCCCNC(=O)COCCOCCNC(=O)CC[C@H](NC(=O)COCCOCCNC(=O)COCCOCCNC(=O)CCCCCCCCCCCCC(=O)O)C(=O)O)C(=O)N[C@@](C)(Cc1ccc(O)cc1)C(=O)N[C@@H](CC(C)C)C(=O)N[C@H](C(=O)N[C@@H](CCCCNC(=O)COCCOCCNC(=O)CC[C@H](NC(=O)COCCOCCNC(=O)COCCOCCNC(=O)CCCCCCCCCCCCC(=O)O)C(=O)O)C(=O)NCC(=O)NCC(=O)N1CCC[C@H]1C(=O)N[C@@H](CO)C(=O)N[C@@H](CO)C(=O)NCC(=O)N[C@@H](C)C(=O)N1CCC[C@H]1C(=O)N1CCC[C@H]1C(=O)N1CCC[C@H]1C(=O)N[C@@H](CO)C(N)=O)[C@@H](C)CC)[C@@H](C)CC` [Example 364]: the Emax at hGIPR (setting [5]) was determined as 89.1%. In addition, the concentration for a half-maximal effect (EC50) at hGIPR (37° C.) was 0.0111 nM; at hGCGR (setting [6]) it was > 9950 nM; on hGCGR (setting [7]), > 9950 nM; on hGLP-1R (setting [6]) it was 0.347 nM; at hGLP-1R (setting [7]), 13 nM.

For the molecule `CC[C@H](C)[C@H](NC(=O)[C@H](Cc1ccccc1)NC(=O)[C@H](CCC(=O)O)NC(=O)C(C)(C)NC(=O)[C@H](CCC(N)=O)NC(=O)[C@H](C)NC(=O)[C@H](CCCCNC(=O)COCCOCCNC(=O)COCCOCCNC(=O)CC[C@H](NC(=O)CCCCCCCCCCCCC(=O)O)C(=O)O)NC(=O)[C@H](CCCN)NC(=O)[C@H](CC(=O)O)NC(=O)[C@H](CC(C)C)NC(=O)[C@](C)(CC(C)C)NC(=O)[C@@H](NC(=O)[C@H](CO)NC(=O)[C@H](Cc1ccncc1)NC(=O)[C@H](CC(=O)O)NC(=O)[C@H](CO)NC(=O)[C@@H](NC(=O)[C@](C)(Cc1ccccc1F)NC(=O)[C@@H](NC(=O)CNC(=O)[C@H](CCC(=O)O)NC(=O)C(C)(C)NC(=O)[C@@H](N)Cc1ccc(O)cc1)[C@@H](C)O)[C@@H](C)O)[C@@H](C)CC)C(=O)NCC(=O)N[C@@](C)(Cc1ccc(O)cc1)C(=O)N[C@@H](CC(C)C)C(=O)N[C@H](C(=O)N[C@@H](CCC(=O)O)C(=O)NCC(=O)NCC(=O)N[C@@H](CCCCNC(=O)COCCOCCNC(=O)COCCOCCNC(=O)CC[C@H](NC(=O)CCCCCCCCCCCCC(=O)O)C(=O)O)C(=O)N[C@@H](CO)C(=O)N[C@@H](CO)C(=O)NCC(=O)N[C@@H](C)C(=O)N1CCC[C@H]1C(=O)N1CCC[C@H]1C(=O)N1CCC[C@H]1C(=O)N[C@@H](CO)C(N)=O)[C@@H](C)CC` [Example 104], the Emax came out at 95.9% at hGIPR (setting [1]); 94.9% at hGIPR (HEK293, percent of maximal response to GIP(1-42)NH2, 37° C., 0.1% bovine casein, arithmetic mean); 95.8% on hGLP-1R (setting [4]). The EC50 is 0.0361 nM on hGIPR (incubated at 37° C.), > 9950 nM at hGCGR (setting [2]), > 9950 nM at hGCGR (setting [3]) and 12.3 nM at hGLP-1R (setting [2]).
